According to paper PMC12388496, “Discovery of (E)-1,3-Diphenyl-2-Propen-1-One Derivatives as Potent and Orally Active NLRP3 Inflammasome Inhibitors for Colitis” (Molecules, 2025):
pIC50: −log10 of the molar value.

Assays:
[1] = tested on: IL-1β secretion in THP-1 cells (NLRP3 inflammasome); experiment: Inhibition of IL-1β secretion in THP-1 cells; format: cell-based; settings: Homo sapiens, three independent experiments
Description: Through SAR analysis, we identified compound F14 as the target compound for further investigation. To further validate its activity, the half-inhibitory concentration (IC50) of compound F14 for IL-1β release was determined in the BMDM model. […] To more comprehensively assess the potential of compound F14, we further evaluated its inhibition of IL-1β in THP-1 cells.
Figure 3 F14 inhibits the secretion of IL-1β. (A) Detection of F14 inhibition of IL-1 β secretion in BMDM cells; (B) Detection of F14 inhibition of IL-1 β secretion in THP-1 cells. IC50 calculation and dose-response curve fitting were performed using GraphPad Prism (8.0) software. All data were obtained from three independent experiments.

[2] = tested on: DSS-induced acute colitis; experiment: DSS-induced acute colitis in mice; format: in vivo, mouse; settings: 10 and 20 mg/kg daily, gavage
Description: To further validate the in vivo biological activity of compound F14, we used the DSS-induced mouse colitis model to assess its anti-inflammatory effects. The experimental design was as follows: mice were divided into the normal group, model group (DSS), positive control group (DSS + sulfasalazine), low-dose group (DSS + 10 mg/kg), and high-dose group (DSS + 20 mg/kg). Mice in the normal group were given regular water with no treatment; the positive control group received sulfasalazine as the positive drug at a daily dose of 200 mg/kg; the low-dose and high-dose groups were administered 10 mg/kg and 20 mg/kg of F14, respectively, each day. During the experiment, acute colitis in mice was induced by drinking water containing 3% DSS […]. The mice’s body weight changes, fecal blood presence, and disease activity index (DAI) were recorded daily. […] Goblet cells are a type of colon epithelial cell, and their primary function is to secrete mucus, which helps maintain the stability of the intestinal environment. During the pathological process of colitis, the number of goblet cells decreased, and their mucus-secreting function was impaired. In histological examinations, the number and secretion function of goblet cells are important indicators of colitis.
Male C57BL/6 mice, 18–20 g, were purchased from Charles River (China). All experiments and animal care procedures were approved by the Animal Resource Center of Anhui Medical University by the National Institutes of Health Guide for the Care and Use of Laboratory Animals (20230875). This study used DSS induction to establish an acute colitis model in mice. Mice in the experimental group were given free access to a 3% DSS solution for 7 days to induce an intestinal inflammation phenotype. The positive control group (sulfasalazine, 200 mg/kg) and the treatment group were gavage administration daily, using a 0.5% carboxymethyl cellulose sodium (CMC-Na) solution as the drug vehicle. The normal control and model groups received an equal volume of blank CMC-Na solution. Daily monitoring of weight changes and clinical symptoms was performed during the experimental period, including fecal characteristics (formed/loose/watery stools) and the degree of rectal bleeding (occult blood/gross blood in feces). On day 10, at the end of the experiment, the colonic sections of the mice were carefully excised. The excised colon was examined, and the length of the colon was measured. Some colon tissues were fixed in 4% formaldehyde and used for HE staining and immunohistochemical analysis for subsequent evaluations.

[3] = MTT assay, HepaRG cytotoxicity; format: cell-based; settings: human, HepaRG cells, n = 3
Description: HepaRG cells in the logarithmic growth phase (10^5 cells/mL), inoculate them into a 96-well plate, and culture overnight in a 37 °C, 5% CO2 incubator. Add compounds at different concentrations and continue culturing for 24 h. Add 20 μL of MTT solution, incubate for 4 h, discard the supernatant, and add DMSO to dissolve.

ASC = ASC spot immunofluorescence experiment in BMDM cells; format: cell-based, mouse; settings: LPS and Nigericin, concentration-dependent
Text: The formation of ASC oligomers is a key hallmark of inflammasome activation. ASC forms interactions with other ASC molecules through its pyrin domain (PYD), which leads to the aggregation of these molecules, resulting in the formation of a speck-like structure (ASC specks). This process involves not only the aggregation of proteins but also the assembly of a highly ordered structure in the cytoplasm. Inhibition of ASC oligomerization can effectively block NLRP3 inflammasome activation. […] Therefore, we hypothesize that F14 may inhibit caspase-1 activation by interfering with ASC oligomerization or ASC speck formation. To validate this hypothesis, we conducted immunofluorescence experiments in BMDM cells under inflammatory conditions.
Add the BMDM cells into a 24-well plate with a cell density of 3 × 10^5 cells per well. Add LPS (200 ng/mL) to all wells except the blank wells to stimulate the cells for 3 h, then add the F14 to the experimental group and incubate for 1 h, followed by Nigericin stimulation for 30 min. Add 500 μL of FAA fixation solution to each well, incubate with 1% TritonX-100 solution for 15 min, then block with 5% BSA solution. Add an appropriate amount of primary antibody and incubate overnight, wash, then add the secondary antibody for incubation. […]

**Q.** With `Cc1ccc(C(=O)/C=C/c2cccc(O)c2)c(C)c1` [Compound F14, (E)-1-(2,4-dimethylphenyl)-3-(3-hydroxyphenyl)propyl-2-en-1-one] as the compound, how does the pIC50 [1] read?
**A.** 6.06

**Q.** And the colonic adhesion ([2]; DSS mice)?
**A.** effectively alleviated

**Q.** What about the “goblet cells in colon tissue (histology)” value ([2]; DSS mice) of the same compound?
**A.** inhibits the reduction

**Q.** What about the “disease activity index (DAI)” value ([2]; vs model group (DSS)) of the same compound?
**A.** inhibits the increase

**Q.** What about the “weight loss in mice” value ([2]; vs model group (DSS)) of the same compound?
**A.** significantly alleviates

**Q.** What about the IC50 at 24 h [3] of the same compound?
**A.** > 50000 nM

**Q.** And the ASC speckles (ASC)?
**A.** significant reduction
